Data on 2 molecules can be found in paper PMC10876507, “Chelator impact: investigating the pharmacokinetic behavior of copper-64 labeled PD-L1 radioligands” (EJNMMI Radiopharmacy and Chemistry, 2024).

“And” between values parts separate entries of the source, which are not always exact repeats. Identical values can stand only once.

One may read the Kd as a measure of binding affinity in units of concentration. Read a high Kd as a looser complex.

For data set [1] the following is noted: n-octanol/PBS pH 7.4, shake flask. Here is the method: The n-octanol/water distribution coefficients for each radioligand were determined using the shake-flask method. Each experiment was conducted in triplicate. To initiate the experiment, 30 µL of the labeling mixture was combined with 570 µL of PBS (pH 7.4) and 600 µL of n-octanol in a 1.5 mL Eppendorf-Tube. The resulting mixture was shaken at room temperature at 1500 rpm for 5 min before undergoing centrifugation. An aliquot was extracted from each phase, and radioactivity was measured on a γ-counter (ISOMED 2160). Subsequently, mean values were calculated and adjusted for background activity. The log D7.4 value was determined utilizing the equation: logD7.4=logAn-octanol/APBS

The target in a further data set is PD-L1 (Homo sapiens, UniProt Q9NZQ7). The data set is described as follows: Real-time radioligand binding (LigandTracer) on PC3 PD-L1 overexpressing cells, without BSA. Details: expressed in transfected cells; host or cells: PC3 PD-L1 overexpressing cells. As to conditions: for Kd: PC3 PD-L1 overexpressing cells, room temperature, without BSA; for ka: association rate constant; for ka / kd: real-time binding; for kd: dissociation rate constant. Here is the method: For the saturation binding experiments, cells were detached with 0.05% Trypsin–EDTA (Gibco, USA), and counted (CASY1 cell counter, Schaerfe System, Reutlingen, Germany). Cells were then diluted in medium to ~ 160,000 cells/mL and seeded in 48 well plates (Falcon Multiwell #353078, ThermoFisher, Karlsruhe, Germany) for at least 2 days prior to saturation binding experiments. For real-time radioligand binding, approximately 400,000 cells/mL were seeded into one side of petri dishes (3 mL, Nunclon, # 150350, ThermoFisher Germany) ~ 24 h before the experiments.
To investigate binding kinetics, including the association rate constant (ka) and dissociation rate constant (kd), as well as the dissociation constant (KD), a real-time assay system (LigandTracer Yellow or LigandTracer White, Ridgeview Instruments AB, Uppsala, Sweden) was utilized. The petri dish contained attached cells in medium (3 mL) on one side, while radioactivity was detected on the opposing side. The petri dish is set upon an inclined base, allowing continuous measurement of alternating portions of the dish for bound radioligand (cells) compared to the background signal (no cells). Binding experiments were carried out at room temperature using CO2-independent medium (Gibco #18045088, ThermoFisher Germany).
The association phase consisted of incubation with two concentrations (30 and 90 nM, each for 90 min) of our ^64Cu-labeled PD-L1-radioligands, binding to PC3 PD-L1 overexpressing cells. Following this, the incubation medium was replaced with fresh medium, and the dissociation phase was monitored for a minimum of 2 h. […] Data were recorded as decay-corrected counts per second (CPS). Subsequently, binding data were analyzed using TraceDrawer software (version 1.9.2, Ridgeview Instruments AB, Uppsala, Sweden). Traces were imported, potential spikes (instances of sudden CPS increases exceeding 100% of the previous data point) were eliminated, and each trace was normalized to its own baseline (set as 0%) and its maximum value (set as 100%).

PD-L1, sequence (Q9NZQ7 19-290): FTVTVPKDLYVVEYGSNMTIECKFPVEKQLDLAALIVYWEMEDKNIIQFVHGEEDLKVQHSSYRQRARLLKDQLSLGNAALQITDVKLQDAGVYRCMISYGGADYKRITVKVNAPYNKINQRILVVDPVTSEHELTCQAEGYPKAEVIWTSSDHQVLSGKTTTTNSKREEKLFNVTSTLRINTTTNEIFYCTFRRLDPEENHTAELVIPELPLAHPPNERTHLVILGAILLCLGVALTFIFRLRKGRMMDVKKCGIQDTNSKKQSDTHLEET

Regarding `Cc1c(COc2cc(OCc3cncc(S(C)(=O)=O)c3)c(CN[C@@H](CS(=O)(=O)O)C(=O)NCCS(=O)(=O)O)cc2Br)cccc1-c1cccc(OCc2cn(CCCN3CCN(C(=O)[C@H](CS(=O)(=O)O)NC(=O)CC[C@H](C(=O)[O-])N4CCN(CC(=O)[O-])CCN(CC(=O)[O-])CC4)CC3)nn2)c1C.[64Cu+2]` [[^64Cu]Cu-14], in data set [1], the “Log D7.4” value was “–3.00 ± 0.03”. Also, on PD-L1, the Kd was ~20 nM and 23.3 nM; the ka entry was “(5.06 ± 0.25) × 10^3 (M × s)^–1”; the kd result is given as “(1.17 ± 0.06) × 10^–4 s^–1”.
Turning to `Cc1c(COc2cc(OCc3cncc(S(C)(=O)=O)c3)c(CN[C@@H](CS(=O)(=O)O)C(=O)NCCS(=O)(=O)O)cc2Br)cccc1-c1cccc(OCc2cn(CCCN3CCN(C(=O)[C@H](CS(=O)(=O)O)NC(=O)CCCC(=O)NC45CNCCNCC(N)(CNCCNC4)CNCCNC5)CC3)nn2)c1C.[64Cu+2]` [[^64Cu]Cu-16], the “Log D7.4” value in data set [1] is “–2.79 ± 0.02”. On PD-L1, the affinity, expressed as Kd, was 24.2 ± 0.93 nM; the ka entry is on record as “(5.55 ± 0.31) × 10^3 (M × s)^–1”; the kd result is “(1.35 ± 0.09) × 10^–4 s^–1”.
